Test results reported in patent US20240166641A1, “HETEROCYCLES AND USES THEREOF” (Kumquat Biosciences Inc., priority 2021, published 2024).

Legend:
[1] = tested on: B16F10 cells; test: In vivo efficacy in B16F10 mouse tumor model; details: B16F10 in female C57BL/6 mice, oral BID, 100 or 300 mg/kg/dose
Protocol: Cells are grown to passage 3 in vitro. A total of 1 to 5×10^5 viable B16F10 cells are inoculated subcutaneously into the right flank of female C57BL/6 mice (7-12 weeks old) on Day 0. The injection volume is 0.1 mL and is composed of a 1: 1 mixture of S-MEM and Matrigel® (Corning, NY, USA). The mean tumor volume (TV) at randomization is approximately 100-200 mm^3. Following randomization, treatments are initiated on the same day. Dosing of mice is conducted orally, twice a day (BID). Mice are dosed (100 mg/kg/dose or 300 mg/kg/dose) with a compound described herein or vehicle controls. Tumor volume is calculated three times weekly. Measurements of the length (L) and width (W) of the tumor are taken via electronic caliper and the volume is calculated according to the following equation: V=L×W^2/2. Tumor growth inhibition (TGI) is calculated as TGI=1−(Mean TV Timepoint(Treatment)/MeanTV Timepoint (Vehicle)) for each timepoint that tumor volumes are measured and depicted in FIG. 3.

[2] = tested on: B16F10 cells; test: Tumor infiltrating lymphocyte exhaustion assay; type: in vivo, mouse; details: Day 7 post dosing, B16F10 tumors in C57BL/6 mice
Source text: The same mouse model is utilized to assess the amount of tumor infiltrating lymphocytes when treated with or without an exemplary compound A of the present disclosure. C57BL/6 mice were implanted with 5*10^5 B16F10 cells formulated in Matrigel via the subcutaneous route. After tumors reached a size of 50-150 mm^3, mice were randomized. 7 days post randomization, tumor cells were processed on a GentleMACS octo dissociator and stained for exhaustion markers using a panel of antibodies: Live/Dead, CD45.1, CD8, TIM-3, PD-1, SLAMF6, CD11b, CD38. In parallel, splenocytes were stained with the same cocktail of antibodies and analyzed by flow cytometry. […] PTPN2 inhibitors are tested in the described TIL exhaustion assay to measure modulation of exhaustion in the tumor microenvironment.

[3] = mouse PK PO (oral pharmacokinetics, Compound A vs. Reference CMPD); type: in vivo; details: identical oral dosing
Protocol: (§1) Furthermore, an AUCfinal for Compound A was measured to be 356% that of the Reference CMPD measured in the same manner and at the same time in the same mouse model. […] Furthermore, an AUCfinal for Compound A was measured to be 224% that of the Reference CMPD measured in the same manner and at the same time in the same rat model.

[4] = Rat PK PO (oral pharmacokinetics, Compound A vs. Reference CMPD); type: in vivo; details: identical oral dosing
Protocol: as §1

[5] = target: T1, PTP1B (Homo sapiens, UniProt P18031); test: Phosphatase activity assay (Bio-Biochem-DiFMUP), PTP1B; type: biochemical; details: DiFMUP substrate, room temperature
T1 sequence (P18031 1-435): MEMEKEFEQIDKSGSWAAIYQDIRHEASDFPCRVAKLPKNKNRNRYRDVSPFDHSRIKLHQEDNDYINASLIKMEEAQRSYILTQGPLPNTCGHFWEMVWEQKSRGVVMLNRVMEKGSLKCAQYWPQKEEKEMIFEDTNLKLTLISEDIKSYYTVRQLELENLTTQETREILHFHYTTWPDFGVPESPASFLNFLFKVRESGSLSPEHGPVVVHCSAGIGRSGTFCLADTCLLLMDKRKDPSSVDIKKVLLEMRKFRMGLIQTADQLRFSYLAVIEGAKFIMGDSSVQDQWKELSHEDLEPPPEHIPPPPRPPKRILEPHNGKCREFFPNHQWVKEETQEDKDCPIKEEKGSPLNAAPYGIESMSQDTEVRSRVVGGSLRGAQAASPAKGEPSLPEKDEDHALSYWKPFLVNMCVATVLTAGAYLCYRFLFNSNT
How it was run: (§2)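 Buffer was 50 mM Bis-Tris pH 6.3, 2 mM EDTA, 5 mM DMH, with 10 μM FDP or DiFMUP substrate, enzyme added last, at room temperature. Fluorescent product was read continuously for 15–30 min (DiFMU ex 360/em 450 nm; FMP ex 440/em 530 nm). Initial rates against 10-point inhibitor series were fitted with a 4-parameter equation to give IC50.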

[6] = tested on: mouse C57BL/6 T cells; test: pSTAT1 signaling in IFNα-stimulated T cells, flow cytometry; type: cell-based; details: T-cell, 10 uM compound, T cells stimulated for 5 hours by IFNα, read-out: % pSTAT1 in cells treated with subject compounds relative to negative control (DMSO)
Protocol: IFNα signaling in mouse C57BL/6 T cells promotes activation of multiple signaling pathways associated with antitumor responses. A key target of this signaling is phosphorylation of the transcription factor STAT1. […] T cells are stimulated for 5 hours by IFNα in the presence or absence of exemplified compounds disclosed herein (e.g., PTPN2 inhibitors) and stained intracellularly with antibodies for phosphorylated STAT1 and then analyzed by flow cytometry. Enhancement of phosphorylation of STAT1 is read out as a percentage over the DMSO control.

[7] = target: T2, PTPN2 (Homo sapiens, UniProt P17706); test: Phosphatase activity assay (Bio-Biochem-DiFMUP), PTPN2; type: biochemical; details: DiFMUP substrate, room temperature
T2 sequence (P17706 1-415): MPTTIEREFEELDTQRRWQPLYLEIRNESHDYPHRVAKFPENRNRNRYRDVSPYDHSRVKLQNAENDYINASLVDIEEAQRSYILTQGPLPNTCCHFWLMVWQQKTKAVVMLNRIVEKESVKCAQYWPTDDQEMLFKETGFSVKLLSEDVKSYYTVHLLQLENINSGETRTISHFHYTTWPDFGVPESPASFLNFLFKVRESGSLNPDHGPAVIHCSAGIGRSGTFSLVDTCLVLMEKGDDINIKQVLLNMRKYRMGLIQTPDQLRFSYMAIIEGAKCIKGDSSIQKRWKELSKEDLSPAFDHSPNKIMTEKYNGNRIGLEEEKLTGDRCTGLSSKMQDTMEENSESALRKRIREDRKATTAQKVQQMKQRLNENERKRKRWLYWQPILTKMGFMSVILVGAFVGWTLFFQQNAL
How it was run: as §2

[8] = tested on: C57B3L/6 mouse primary T cells; test: T-cell activation: CD25 expression on primary T cells stimulated with anti-CD3/CD28; type: cell-based; details: 10 uM compound, primary T cells stimulated with antibodies to CD3 and CD28
Protocol: The increase of T cell activation and most importantly T cell function is a strategy for novel immune oncology approaches to promote tumor immunity. In vitro assays using wildtype C57B3L/6 mouse primary T cells are commonly used to assess the impact of compound on T cell activation and function. To assess the ability of compounds disclosed here (e.g., PTPN2 inhibitors) to stimulate T cell activation, primary T cells stimulated with antibodies to CD3 and CD28 are treated with or without exemplary compounds (at 10 uM) disclosed herein are stained with antibodies directed to T-cell activation markers, such as CD25. Additional markers including without limitation CD69, SLAMF6, TIM3, and PD1 can also be employed as a proxy for T cell activation.

[9] = tested on: B16F10 mouse melanoma cells; test: MHC expression associated with IFNγ signaling, flow cytometry; type: cell-based; details: B16-F10, 3 uM compound, 48 hours, normalized to DMSO/with IFNγ control, read-out: % MHC in cells treated with Compound at 3 uM relative to negative control (DMSO)
Protocol: B16F10 mouse melanoma cells (ATCC Cat #CRL-6475, Manassas, VA) are seeded at approximately a density of 500 cells per well in a 384-well clear bottom plate (Corning Cat #3765, Corning, 5 NY) in 25 μL total volume of DMEM+10% FBS (Sigma Cat #D6429 and Sigma Cat #F4135, St. Louis, MO). Cells are allowed to adhere overnight at 37° C.+5% CO2. On the following day, 12.5 μL of mouse IFNγ (RD systems Cat #485-MI/CF, Minneapolis, MN) is added to half of the plate (columns 13-24) at a concentration of 2 ng/mL for a final assay concentration of 0.5 ng/mL of IFNγ. Media only (12.5 μL of DMEM+10% FBS) is added to the remainder of the 10 plate (columns 1-12). Next, compounds resuspended in DMSO (Sigma Cat #D2650) at 100 mM are diluted in semi-log dilutions in DMSO ranging from 100 mM to 0.001 mM and DMSO only controls are included. The compound/DMSO dilutions are further diluted 1:250 in DMEM+10% FBS, and 12.5 μL of these dilutions are added in triplicates to cells of both treatment arms (with and without IFNγ). Compounds are only dosed in the inner 240 wells, avoiding the outer 2-well perimeter of the plate to minimize edge effects. Finally, the plate is loaded into an IncuCyte® S3 Live Cell Analysis System (Essen Bioscience-Sartorius, Ann Arbor, MI) maintained in a 37° C.+5% CO2 incubator, allowed to equilibrate for 2 hours, and treated for 48 hours. MHC levels are measured by flow cytometry using a FITC anti-mouse H-2kb antibody (clone AF6-88.5), and levels are normalized based on DMSO/with IFNγ control. Table 7 below summarizes the percentage in MHC expression in cells treated with or without compounds disclosed herein at a specified concentration.

[10] = mouse PK PO, relative to Reference CMPD of WO2019/246513
[11] = Rat PK PO, relative to Reference CMPD of WO2019/246513

COc1ccc2cc(O)c(N3CC(=O)NS3(=O)=O)c(F)c2n1 [Compound A]
Tumor volume / tumor growth inhibition (FIG. 3) [1]: apparent tumor stasis and shrinkage
CD38+/CD11b+ “M1” Macrophages [2]: increase
TIM3+/PD1+ T cells [2]: increase
% F, Compound A vs. Reference CMPD ((Compound A/Reference CMPD) × 100%) [3, 10]: 195%
AUClast, Compound A vs. Reference CMPD ((Compound A/Reference CMPD) × 100%) [3, 10]: 356%
Cmax, Compound A vs. Reference CMPD ((Compound A/Reference CMPD) × 100%) [3, 10]: 495%
AUCfinal of Compound A as % of that of the Reference CMPD ([3]; mouse pharmacokinetic model, relative to Reference CMPD): 356%
% F, Compound A vs. Reference CMPD ((Compound A/Reference CMPD) × 100%) [4, 11]: 208%
AUClast, Compound A vs. Reference CMPD ((Compound A/Reference CMPD) × 100%) [4, 11]: 224%
Cmax, Compound A vs. Reference CMPD ((Compound A/Reference CMPD) × 100%) [4, 11]: 155%
AUCfinal of Compound A as % of that of the Reference CMPD ([4]; rat pharmacokinetic model, relative to Reference CMPD): 224%

CC(C)Oc1ccc2cc(O)c(N3CC(=O)NS3(=O)=O)c(F)c2n1 [Compound 192]
IC50 [5]: ≤ 1000 nM
activity at 10 µM [6]: 183%
IC50 [7]: ≤ 1000 nM
% CD25 expression in cells treated with subject compounds relative to negative control (DMSO) [8]: 375%

O=C1CN(c2c(O)cc3ccc(OC4CCC4)nc3c2F)S(=O)(=O)N1 [Compound 205]
IC50 [5]: ≤ 1000 nM
IC50 [7]: ≤ 1000 nM
% CD25 expression in cells treated with subject compounds relative to negative control (DMSO) [8]: 423%

CC(C)CCOc1cc2c(F)c(N3CC(=O)NS3(=O)=O)c(O)cc2n(C)c1=O [Compound 136, 5-(5-fluoro-7-hydroxy-3-(isopentyloxy)-1-methyl-2-oxo-1,2-dihydroquinolin-6-yl)-1,2,5-thiadiazolidin-3-one 1,1-dioxide]
IC50 [5]: ≤ 1000 nM
activity at 10 µM [6]: 131%
IC50 [7]: ≤ 1000 nM

O=C1CN(c2c(O)cc3ccc(OC(F)F)nc3c2F)S(=O)(=O)N1 [Compound 197]
IC50 [5]: ≤ 1000 nM
activation at 3 µM [9]: > 10%
activity at 10 µM [6]: 196%
IC50 [7]: ≤ 1000 nM
% CD25 expression in cells treated with subject compounds relative to negative control (DMSO) [8]: 436%

CC(C)Nc1cc2c(F)c(N3CC(=O)NS3(=O)=O)c(O)cc2n(C)c1=O [Compound 165]
IC50 [5]: ≤ 1000 nM
activity at 10 µM [6]: 139%
IC50 [7]: ≤ 1000 nM
